Assay results taken from patent US10738040B2, “Compounds, compositions, and methods for increasing CFTR activity” (Proteostasis Therapeutics, Inc., priority 2014, dated 2020).
Marks after values point to notes of the source that are not given here.

How the values were obtained:
[1] = biological target: T1, ΔF508-CFTR (Homo sapiens, UniProt P13569, DEL508-508); experiment: hBE equivalent current (Ieq) assay; assay type: cell-based; conditions: compound at 10 uM and VX-809 at 1 uM, relative to VX-809 (1 uM); primary lung epithelial cells homozygous for ΔF508, 24 hours treatment; AUC of equivalent chloride current
T1 construct: Primary lung epithelial cells homozygous for the Cystic Fibrosis-causing ΔF508 mutation were differentiated; endogenous in cells; host or cells: primary human lung (bronchial) epithelial cells homozygous for ΔF508, differentiated at air-liquid interface
T1 sequence (P13569 with tags, fused parts or gaps DEL508-508): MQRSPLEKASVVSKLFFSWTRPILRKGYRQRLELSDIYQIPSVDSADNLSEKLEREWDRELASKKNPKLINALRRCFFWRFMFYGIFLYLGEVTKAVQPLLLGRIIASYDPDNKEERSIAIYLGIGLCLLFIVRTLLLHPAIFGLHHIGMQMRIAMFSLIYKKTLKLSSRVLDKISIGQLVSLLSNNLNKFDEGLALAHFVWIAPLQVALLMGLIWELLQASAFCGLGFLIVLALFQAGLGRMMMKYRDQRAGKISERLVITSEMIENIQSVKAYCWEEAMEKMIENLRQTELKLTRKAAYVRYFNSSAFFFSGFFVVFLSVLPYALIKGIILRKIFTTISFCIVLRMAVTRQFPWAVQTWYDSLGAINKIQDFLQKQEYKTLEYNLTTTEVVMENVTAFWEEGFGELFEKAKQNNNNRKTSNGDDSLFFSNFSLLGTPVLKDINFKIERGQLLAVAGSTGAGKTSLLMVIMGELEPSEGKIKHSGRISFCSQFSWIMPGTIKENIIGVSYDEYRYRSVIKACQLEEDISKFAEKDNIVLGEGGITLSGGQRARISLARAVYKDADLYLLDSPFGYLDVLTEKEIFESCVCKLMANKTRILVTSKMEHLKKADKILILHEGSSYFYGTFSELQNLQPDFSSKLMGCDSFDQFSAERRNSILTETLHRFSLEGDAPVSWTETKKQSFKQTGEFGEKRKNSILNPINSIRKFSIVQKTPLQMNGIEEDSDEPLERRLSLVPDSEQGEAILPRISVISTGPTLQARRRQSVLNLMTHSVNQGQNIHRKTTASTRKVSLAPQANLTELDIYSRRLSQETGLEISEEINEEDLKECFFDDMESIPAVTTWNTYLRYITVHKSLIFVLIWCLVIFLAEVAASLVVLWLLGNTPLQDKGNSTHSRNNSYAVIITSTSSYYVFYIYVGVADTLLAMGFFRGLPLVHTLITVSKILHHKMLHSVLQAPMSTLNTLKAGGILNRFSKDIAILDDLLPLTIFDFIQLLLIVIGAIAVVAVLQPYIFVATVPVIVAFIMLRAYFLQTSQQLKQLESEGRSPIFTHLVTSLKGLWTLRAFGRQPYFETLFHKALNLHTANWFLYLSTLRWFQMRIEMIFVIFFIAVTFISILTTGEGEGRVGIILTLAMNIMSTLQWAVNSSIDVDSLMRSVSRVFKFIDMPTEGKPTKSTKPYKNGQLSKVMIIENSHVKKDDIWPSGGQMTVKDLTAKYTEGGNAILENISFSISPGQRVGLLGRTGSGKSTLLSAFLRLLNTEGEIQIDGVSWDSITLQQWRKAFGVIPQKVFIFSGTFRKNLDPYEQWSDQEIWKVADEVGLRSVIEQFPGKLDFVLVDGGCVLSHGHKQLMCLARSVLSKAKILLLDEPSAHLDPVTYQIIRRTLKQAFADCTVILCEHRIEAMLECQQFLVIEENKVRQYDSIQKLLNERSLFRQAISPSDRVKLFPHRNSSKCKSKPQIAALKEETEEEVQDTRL
Method: ii. hBE Equivalent Current (Ieq) Assay
Primary lung epithelial cells homozygous for the Cystic Fibrosis-causing ΔF508 mutation were differentiated for a minimum of 4 weeks in an air-liquid interface on Costar 24 well HTS filter plates prior to the equivalent current (Ieq) measurements. Cells were apically mucus-washed for 30 minutes 24 h prior to treatment with compounds. The basolateral media was removed and replaced with media containing the compound of interest diluted to its final concentration from DMSO stocks. Treated cells were incubated at 37° C. and 5% CO2 for 24 hours. At the end of the treatment period, the media was changed to the Ieq experimental solution for 30 minutes before the experiment and plates are maintained in a CO2-free incubator during this period. The plates containing the cells were then placed in pre-warmed heating blocks at 36° ° C.±0.5 for 15 minutes before measurements are taken. The transepithelial voltage (VT) and conductance (GT) were measured using a custom 24 channel current clamp (TECC-24) with 24 well electrode manifold. The Ieq assay measurements were made following additions with standardized time periods: • 1. The baseline VT and GT values were measured for approximately 20 minutes. • 2. Benzamil was added to block ENaC for 15 minutes. • 3. Forskolin plus VX-770 (ivacaftor) were added to maximally activate ΔF508-CFTR for 27 minutes. • 4. Bumetanide was added to inhibit the NaK2Cl cotransporter and shut-off secretion of chloride.
The activity data captured was the area under the curve (AUC) for the traces of the equivalent chloride current. The AUC was collected from the time of the forskolin/VX-770 addition until the inhibition by bumetanide addition. Correction in response to compound treatment was scored as the increase in the AUC for compound-treated samples over that of vehicle-treated samples.

[2] = biological target: T1, ΔF508-CFTR; experiment: Ussing measurements (short-circuit current, CFTRinh-172-inhibitable); assay type: cell-based; conditions: compound at 10 uM and VX-809 at 3 uM, relative to VX-809 (3 uM); hBEs homozygous for ΔF508, 24 hours treatment; CFTRinh-172-inhibitable current
Method: As discussed above, Ussing measurements can be used to measure CFTR activity. In this method, primary lung epithelial cells (hBEs) homozygous for the Cystic Fibrosis-causing ΔF508 mutation were differentiated for a minimum of 4 weeks in an air-liquid interface on SnapWell filter plates prior to the Ussing measurements. Cells were apically mucus-washed for 30 minutes prior to treatment with compounds. The basolateral media was removed and replaced with media containing the compound of interest diluted to its final concentration from DMSO stocks. Treated cells were incubated at 37° C. and 5% CO2 for 24 hours. At the end of the treatment period, the cells on filters were transferred to the Ussing chamber and equilibrated for 30 minutes. The short-circuit current was measured in voltage clamp-mode (Vhold=0 mV), and the entire assay was conducted at a temperature of 36° C.-36.5° C. Once the voltages stabilized, the chambers were clamped, and data was recorded by pulse readings every 5 seconds. Following baseline current stabilization, the following additions were applied and the changes in current and resistance of the cells was monitored: • 1. Benzamil to the apical chamber to inhibit ENaC sodium channel. • 2. Forskolin to both chambers to activate ΔF508-CFTR by phosphorylation. • 3. Genistein to both chambers to potentiate ΔF508-CFTR channel opening. • 4. CFTRinh-172 to the apical chamber to inhibit ΔF508-CFTR Cl— conductance. The inhibitable current (that current that is blocked by CFTRinh-172) is measured as the specific activity of the ΔF508-CFTR channel, and increases in response to compound in this activity over that observed in vehicle-treated samples are identified as the correction of ΔF508-CFTR function imparted by the compound tested.

| SMILES | Ieq (% VX-809) [1] | Ussing (% VX-809) [2] |
| --- | --- | --- |
| C[C@@H](O)c1cnnn1[C@H]1C[C@H](NC(=O)c2cc(-c3ccccc3)on2)C1 | ** (activity ≥200% of VX-809 (1 uM) with compound at 10 uM and VX-809 at 1 uM) | ## (activity ≥200% of VX-809 (3 uM) with compound at 10 uM and VX-809 at 3 uM) |
| O=C(N[C@H]1C[C@H](n2cc(CO)nn2)C1)c1cc(-c2ccccc2)on1 | ++ * | ## (activity ≥200% of VX-809 (3 uM) with compound at 10 uM and VX-809 at 3 uM) |
| O=C(N[C@H]1C[C@@H](n2nncc2CO)C1)c1cc(-c2ccccc2)on1 | ** (activity ≥200% of VX-809 (1 uM) with compound at 10 uM and VX-809 at 1 uM) | ## (activity ≥200% of VX-809 (3 uM) with compound at 10 uM and VX-809 at 3 uM) |
| C[C@@H](O)c1cnnn1[C@H]1C[C@@H](NC(=O)c2cc(-c3ccccc3)on2)C1 |  | ## (activity ≥200% of VX-809 (3 uM) with compound at 10 uM and VX-809 at 3 uM) |
| O=C(N[C@H]1C[C@@H](n2cc(CO)nn2)C1)c1cc(-c2ccccc2)on1 | ** (activity ≥200% of VX-809 (1 uM) with compound at 10 uM and VX-809 at 1 uM) | ## (activity ≥200% of VX-809 (3 uM) with compound at 10 uM and VX-809 at 3 uM) |
| C[C@@H](O)c1cn([C@H]2C[C@@H](NC(=O)c3cc(-c4ccccc4)on3)C2)nn1 |  | ## (activity ≥200% of VX-809 (3 uM) with compound at 10 uM and VX-809 at 3 uM) |
| O=C(N[C@H]1C[C@H](Cc2nnc(CO)s2)C1)c1cc(-c2ccccc2)on1 |  | ## (activity ≥200% of VX-809 (3 uM) with compound at 10 uM and VX-809 at 3 uM) |
| C[C@H](O)c1nnc(C[C@H]2C[C@H](NC(=O)c3cc(-c4ccccc4)on3)C2)s1 | ** (activity ≥200% of VX-809 (1 uM) with compound at 10 uM and VX-809 at 1 uM) | ## (activity ≥200% of VX-809 (3 uM) with compound at 10 uM and VX-809 at 3 uM) |
| C[C@@H](O)c1nnc(C[C@H]2C[C@H](NC(=O)c3cc(-c4ccccc4)on3)C2)s1 | ** (activity ≥200% of VX-809 (1 uM) with compound at 10 uM and VX-809 at 1 uM) | ## (activity ≥200% of VX-809 (3 uM) with compound at 10 uM and VX-809 at 3 uM) |
| O=C(N[C@H]1C[C@@H](c2nnc(CO)s2)C1)c1cc(-c2ccccc2)on1 |  | ## (activity ≥200% of VX-809 (3 uM) with compound at 10 uM and VX-809 at 3 uM) |
| C[C@@H](O)c1nnc([C@H]2C[C@@H](NC(=O)c3cc(-c4ccccc4)on3)C2)s1 | ** (activity ≥200% of VX-809 (1 uM) with compound at 10 uM and VX-809 at 1 uM) | ## (activity ≥200% of VX-809 (3 uM) with compound at 10 uM and VX-809 at 3 uM) |
| C[C@H](O)c1nnc([C@H]2C[C@@H](NC(=O)c3cc(-c4ccccc4)on3)C2)s1 | ** (activity ≥200% of VX-809 (1 uM) with compound at 10 uM and VX-809 at 1 uM) | ## (activity ≥200% of VX-809 (3 uM) with compound at 10 uM and VX-809 at 3 uM) |
| O=C(N[C@H]1C[C@H](c2nnc(CO)s2)C1)c1cc(-c2ccccc2)on1 | ** (activity ≥200% of VX-809 (1 uM) with compound at 10 uM and VX-809 at 1 uM) | ## (activity ≥200% of VX-809 (3 uM) with compound at 10 uM and VX-809 at 3 uM) |
| O=C(NC1CC(c2nnc(CO)o2)C1)c1cc(-c2ccccc2)on1 (centres unmarked) |  | ## (activity ≥200% of VX-809 (3 uM) with compound at 10 uM and VX-809 at 3 uM) |
| CCCCNC(=O)OCc1cn([C@H]2C[C@H](NC(=O)c3cc(-c4ccccc4)on3)C2)nn1 |  | ## (activity ≥200% of VX-809 (3 uM) with compound at 10 uM and VX-809 at 3 uM) |
| O=C(NC1CC(c2nc(CO)no2)C1)c1cc(-c2ccccc2)on1 (centres unmarked) | ** (activity ≥200% of VX-809 (1 uM) with compound at 10 uM and VX-809 at 1 uM) | ## (activity ≥200% of VX-809 (3 uM) with compound at 10 uM and VX-809 at 3 uM) |

| SMILES | Ieq (% VX-809) [1] | Ussing (% VX-809) [2] |
| --- | --- | --- |
| O=C(N[C@H]1C[C@@H](c2noc(CO)n2)C1)c1cc(-c2ccccc2)on1 | ** (activity ≥200% of VX-809 (1 uM) with compound at 10 uM and VX-809 at 1 uM) | ## (activity ≥200% of VX-809 (3 uM) with compound at 10 uM and VX-809 at 3 uM) |
| O=C(N[C@H]1C[C@H](c2noc(CO)n2)C1)c1cc(-c2ccccc2)on1 | ** (activity ≥200% of VX-809 (1 uM) with compound at 10 uM and VX-809 at 1 uM) | ## (activity ≥200% of VX-809 (3 uM) with compound at 10 uM and VX-809 at 3 uM) |
| C[C@@H](O)c1nnc(C[C@H]2C[C@H](NC(=O)c3cc(-c4ccccc4)on3)C2)o1 | ** (activity ≥200% of VX-809 (1 uM) with compound at 10 uM and VX-809 at 1 uM) | ## (activity ≥200% of VX-809 (3 uM) with compound at 10 uM and VX-809 at 3 uM) |
| C[C@@H](O)c1nnc(C2CC(NC(=O)c3cc(-c4ccc(F)cc4)on3)C2)o1 (some centres unmarked) |  | ## (activity ≥200% of VX-809 (3 uM) with compound at 10 uM and VX-809 at 3 uM) |
| CO[C@H](C)c1nnc([C@H]2C[C@@H](NC(=O)c3cc(-c4ccccc4)on3)C2)o1 | * (activity 100-200% of VX-809 (1 uM) with compound at 10 uM and VX-809 at 1 uM) | ## (activity ≥200% of VX-809 (3 uM) with compound at 10 uM and VX-809 at 3 uM) |
| C[C@H](c1nnc([C@H]2C[C@H](NC(=O)c3cc(-c4ccccc4)on3)C2)o1)S(C)(=O)=O | * (activity 100-200% of VX-809 (1 uM) with compound at 10 uM and VX-809 at 1 uM) | ## (activity ≥200% of VX-809 (3 uM) with compound at 10 uM and VX-809 at 3 uM) |
| CC(C)O[C@H](C)c1nnc([C@H]2C[C@H](NC(=O)c3cc(-c4ccccc4)on3)C2)o1 |  | ## (activity ≥200% of VX-809 (3 uM) with compound at 10 uM and VX-809 at 3 uM) |
| CN1CC(c2nnc([C@H]3C[C@H](NC(=O)c4cc(-c5ccccc5)on4)C3)o2)C1 |  | ## (activity ≥200% of VX-809 (3 uM) with compound at 10 uM and VX-809 at 3 uM) |
| O=C(N[C@H]1C[C@H](c2nnc(C3COC3)o2)C1)c1cc(-c2ccccc2)on1 |  | ## (activity ≥200% of VX-809 (3 uM) with compound at 10 uM and VX-809 at 3 uM) |
| O=C(N[C@H]1C[C@H](c2nnc(C3CS(=O)(=O)C3)o2)C1)c1cc(-c2ccccc2)on1 |  | ## (activity ≥200% of VX-809 (3 uM) with compound at 10 uM and VX-809 at 3 uM) |
| O=C(N[C@H]1C[C@H](n2ccnc2)C1)c1cc(-c2ccccc2)on1 |  | # (activity 100-200% of VX-809 (3 uM) with compound at 10 uM and VX-809 at 3 uM) |
| O=C(NC1CCC(n2nncc2CO)C1)c1cc(-c2ccccc2)on1 (centres unmarked) |  | ## (activity ≥200% of VX-809 (3 uM) with compound at 10 uM and VX-809 at 3 uM) |
| O=C(NC1CCC(n2cc(CO)nn2)C1)c1cc(-c2ccccc2)on1 (centres unmarked) |  | # (activity 100-200% of VX-809 (3 uM) with compound at 10 uM and VX-809 at 3 uM) |
| O=C(NC1CCC(c2nnc(CO)o2)C1)c1cc(-c2ccccc2)on1 (centres unmarked) |  | # (activity 100-200% of VX-809 (3 uM) with compound at 10 uM and VX-809 at 3 uM) |
| O=C(NC1CCC(n2nncc2CO)CC1)c1cc(-c2ccccc2)on1 (centres unmarked) |  | # (activity 100-200% of VX-809 (3 uM) with compound at 10 uM and VX-809 at 3 uM) |
| O=C(NC1CCC(n2cc(CO)nn2)CC1)c1cc(-c2ccccc2)on1 (centres unmarked) |  | # (activity 100-200% of VX-809 (3 uM) with compound at 10 uM and VX-809 at 3 uM) |
